Data from patent US6488967B1, “Gastric acid secretion” (Phytopharm PLC, priority 1999, dated 2002).
Values joined by “and” are separate entries in the source; they are usually repeats but may differ in a detail not shown here. Equal values may be shown once. “Also recorded” adds a separate entry of the source.

Experiments:
[1] = test system: aspirin-induced damage to the stomach; assay: aspirin-induced damage to the stomach in the rat; format: in vivo; design: key to Gastric damage score (individual rat) / Gastric damage score, Mean: small haemorrhage 1, large haemorrhage 2, small ulcer 3, large ulcer 4 points; conditions: for average reduction in gastric damage: vs control group; for Gastric damage score, Mean / Gastric damage score (individual rat): aspirin about 600 mg/kg orally, after 5 hours; for Gastric damage score, Mean: mean of eight rats; for Gastric damage score (individual rat): single animals
Description: Three groups each containing eight rats were given aspirin in 0.5% CMC orally at a dose of about 600 mg/kg (1.0 ml of 60 mg/ml). The first group (the control group) was additionally given 0.5% CMC. The second group was given compound P57AS3 at a dose rate of 100 mg/kg; and the third group (comparative group) was given cimetidine at a dose rate of 20 mg/kg. […] Damage was assessed on a scale in which each small haemorrhage scored one point; each large haemorrhage scored two points; each small ulcer scored three points; and each large ulcer scored four points.

[2] = test system: spontaneously beating guinea pig right atria; assay: isolated tissue: spontaneously beating right atria; conditions: concentrations ≦10 μM
Description: (§1) Purified P57AS3 was examined for binding affinity to a variety of receptors, channels, and uptake sites in vitro. […], In isolated tissue studies, P57AS3 at concentrations ≦10 μM had no effect on the rate of spontaneously beating guinea pig right atria or on the force of contraction of electrically stimulated left atria. […] P57AS3 had no effect on resting tension of isolated guinea pig gallbladder, ileum or trachea, or on CCK octapeptide-induced contractions of the gallbladder (CCK-A receptor mediated), histamine induced contractions of the guinea pig ileum (H1 receptor mediated), or acetylcholine-induced contractions of the guinea pig ileum (M3 receptor mediated).

[3] = test system: isolated guinea pig gallbladder; assay: isolated tissue: resting tension of gallbladder
Description: as §1

[4] = test system: gastric acid secretion; assay: gastric acid secretion in the pylorus-ligated rat; format: in vivo
Description: The effect of both the spray dried extract (sap from Hoodia gordonii)-referred to hereinafter as […]-and the purified compound P57AS3 were examined for effects on gastric acid secretion in the pylorus-ligated rat. Male Sprague-Dawley derived CD rats, 175-230 g, were used. On the day before the test, rats were outfitted with stainless steel tail cups to prevent coprophagy, housed individually with water allowed ad lib, and fasted overnight (18 hr). In one test the […] (5 or 50 mg/kg), or cimetidine (10 mg/kg) or vehicle (water) was orally administered to the rats immediately before fasting. Water was removed 30 minutes prior to ligation on the morning of the test. […] In a second experiment, purified compound P57AS3 was administered intraduodenally (i.d.) at 1 or 10 mg/kg at the time of the pylorus ligation. In this experiment with intraduodenal administration of P57AS3, vehicle (DMSO), cimetidine (10 mg/kg) or P57AS3 (1 or 10 mg/kg) was administered immediately after ligation. The incisions were then closed with staples. In the experiments with subcutaneous administration of P57, vehicle (DMSO), cimetidine (10 mg/kg) or P57, 10 or 30 mg/kg were injected subcutaneously in the nape of the neck immediately after the incisions were closed. Two hours after ligation, the rats were killed, the contents of each stomach collected and cleaned by centrifugation (30 minutes at 2000×g), and the volume of gastric fluid in each stomach was determined. Using a Radiometer pH meter and autotitrator, the pH and acid concentration of each gastric sample was determined by titration to pH 7 with 0.1N NaOH. Results are expressed as μeq/hr/100 g (body weight) and % vehicle control.

[5] = molecular target: T1, M3 receptor (Cavia porcellus, UniProt H0W1Z3); assay: acetylcholine-induced contractions of the guinea pig ileum; conditions: M3 receptor mediated
T1 construct: acetylcholine-induced contractions of the guinea pig ileum (M3 receptor mediated); from tissue; host or cells: isolated guinea pig ileum
T1 sequence (H0W1Z3 1-590): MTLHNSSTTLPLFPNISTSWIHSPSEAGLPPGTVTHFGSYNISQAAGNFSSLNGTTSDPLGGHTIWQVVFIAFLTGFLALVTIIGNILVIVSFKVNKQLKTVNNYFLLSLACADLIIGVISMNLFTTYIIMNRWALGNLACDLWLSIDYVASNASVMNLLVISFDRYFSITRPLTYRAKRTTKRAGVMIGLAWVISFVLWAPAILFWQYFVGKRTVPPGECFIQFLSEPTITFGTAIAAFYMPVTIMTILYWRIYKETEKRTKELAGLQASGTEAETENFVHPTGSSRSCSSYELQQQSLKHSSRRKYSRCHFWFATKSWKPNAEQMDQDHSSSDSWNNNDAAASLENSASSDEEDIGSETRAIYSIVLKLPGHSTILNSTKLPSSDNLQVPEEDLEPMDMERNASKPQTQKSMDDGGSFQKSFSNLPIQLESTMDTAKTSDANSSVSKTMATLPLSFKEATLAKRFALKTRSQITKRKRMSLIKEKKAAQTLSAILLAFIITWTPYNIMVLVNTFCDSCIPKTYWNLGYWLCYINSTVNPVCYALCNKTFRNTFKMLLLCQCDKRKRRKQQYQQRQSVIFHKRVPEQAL
Description: as §1

[6] = test system: electrically stimulated left atria; assay: isolated tissue: electrically stimulated left atria; design: species or system guinea pig
Description: as §1

[7] = molecular target: T2, H1 receptor (Cavia porcellus, UniProt P31389); assay: histamine induced contractions of the guinea pig ileum; conditions: H1 receptor mediated
T2 construct: histamine induced contractions of the guinea pig ileum (H1 receptor mediated); from tissue; host or cells: isolated guinea pig ileum
T2 sequence (P31389 whole entry): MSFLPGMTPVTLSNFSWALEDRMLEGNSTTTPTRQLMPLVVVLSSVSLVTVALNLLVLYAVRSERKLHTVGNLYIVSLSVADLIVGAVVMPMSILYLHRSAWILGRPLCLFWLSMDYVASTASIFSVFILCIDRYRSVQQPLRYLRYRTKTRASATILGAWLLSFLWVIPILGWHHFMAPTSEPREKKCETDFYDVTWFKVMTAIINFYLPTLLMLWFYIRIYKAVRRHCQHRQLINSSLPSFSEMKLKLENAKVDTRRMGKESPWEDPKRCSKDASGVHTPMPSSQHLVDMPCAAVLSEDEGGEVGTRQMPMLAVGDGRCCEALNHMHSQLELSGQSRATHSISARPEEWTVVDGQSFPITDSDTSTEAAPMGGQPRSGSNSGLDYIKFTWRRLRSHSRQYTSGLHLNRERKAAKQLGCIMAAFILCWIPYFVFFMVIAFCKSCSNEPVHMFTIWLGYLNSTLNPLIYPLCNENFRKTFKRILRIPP
Description: as §1

[8] = test system: isolated guinea pig trachea; assay: isolated tissue: resting tension of trachea
Description: as §1

[9] = test system: isolated guinea pig ileum; assay: isolated tissue: resting tension of ileum
Description: as §1

[10] = test system: M3 receptor; assay: carbachol-induced contractions of the guinea pig trachea; conditions: M3 receptor mediated, concentrations ≧1 μM
Description: as §1

[11] = molecular target: T3, CCK-A receptor (Cavia porcellus, UniProt Q63931); assay: CCK octapeptide-induced contractions of the gallbladder; design: species or system guinea pig; conditions: CCK-A receptor mediated
T3 construct: P57AS3 had no effect on resting tension of isolated guinea pig gallbladder, ileum or trachea; from tissue; host or cells: isolated guinea pig gallbladder
T3 sequence (Q63931 1-430): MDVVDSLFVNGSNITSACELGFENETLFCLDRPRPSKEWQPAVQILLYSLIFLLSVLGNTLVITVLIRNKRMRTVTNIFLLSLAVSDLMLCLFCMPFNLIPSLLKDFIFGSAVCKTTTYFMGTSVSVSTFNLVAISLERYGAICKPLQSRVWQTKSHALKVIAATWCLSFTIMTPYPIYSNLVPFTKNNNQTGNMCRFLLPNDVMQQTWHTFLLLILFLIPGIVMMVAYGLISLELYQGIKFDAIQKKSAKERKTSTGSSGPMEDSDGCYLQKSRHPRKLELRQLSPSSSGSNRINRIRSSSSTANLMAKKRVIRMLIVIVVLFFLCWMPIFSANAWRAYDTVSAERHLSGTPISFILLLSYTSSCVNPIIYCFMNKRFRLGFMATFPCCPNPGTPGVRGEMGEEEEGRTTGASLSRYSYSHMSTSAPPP
Description: as §1

[12] = 10 mg/kg sc, 1 of 3 experiments

## CN/C(=N/CCSCc1nc[nH]c1C)NC#N [Cimetidine, cimetidine, reference compound]
[1]; 20 mg/kg
  average reduction in gastric damage: 93.2%
[1]; oral 20 mg/kg
  Gastric damage score, Mean: 0.50
  Gastric damage score (individual rat): 0 (7×) and 4

## C/C=C(\C)C(=O)O[C@@H]1C[C@H]2[C@@H](CC=C3C[C@@H](O[C@H]4C[C@H](OC)[C@H](O[C@H]5C[C@H](OC)[C@H](O[C@@H]6O[C@H](C)[C@@H](O)[C@H](OC)[C@H]6O)[C@@H](C)O5)[C@@H](C)O4)CC[C@@]32C)[C@@]2(O)CC[C@H](C(C)=O)[C@@]12C [P57AS3, 3-O-[-β-D-thevetopyranosyl-(1→4)-β-D-cymaropyranosyl-(1→4)-β-D-cymaropyranosyl]-12β-O-tigloyloxy-14-hydroxy-14β-pregn-5-en-20-one]
[2]
  effect on the rate of spontaneously beating right atria: no effect
[3]
  effect on resting tension of gallbladder: no effect
[4]; 1 mg/kg i.d. at the time of pylorus ligation
  effect on gastric acid secretion: no effect
[4]; 10 mg/kg i.d. at the time of pylorus ligation
  decrease of acid secretion (acid output): 88%
[4]; [12]
  effect on gastric acid secretion: significant decrease
  reduction of gastric acid secretion: 43%
[4]; 10 mg/kg sc, 2 of 3 experiments
  effect on gastric acid output: not significantly different from vehicle-treated controls; also recorded: no effect
[4]; 30 mg/kg sc, one experiment
  effect on gastric acid output: not significantly different from vehicle-treated controls; also recorded: no effect
[4]; Exp. II, 1 mg/kg id
  Acid Output % Control mean ± sd: 109.0 ± 37.8 % Control
[4]; Exp. II, 10 mg/kg id
  Acid Output % Control mean ± sd: 12.4 ± 1.1 % Control
[4]; Exp. III, 10 mg/kg sc
  Acid Output % Control mean ± sd: 48.9 ± 29.2 % Control
[4]; Exp. IV, 10 mg/kg sc
  Acid Output % Control mean ± sd: 74.0 ± 38.0 % Control
[4]; Exp. V, 10 mg/kg sc
  Acid Output % Control mean ± sd: *57.1 ± 19.8 % Control
[4]; Exp. VI, 30 mg/kg sc
  Acid Output % Control mean ± sd: 63.7 ± 17.3 % Control
[5]
  effect on acetylcholine-induced contractions of the ileum: no effect
[6]; concentrations of 1 μM and higher
  effect on basal tension of electrically stimulated left atria: intermittent and transient elevations
[6]; concentrations ≦10 μM
  effect on the force of contraction of electrically stimulated left atria: no effect
[7]
  effect on histamine induced contractions of the ileum: no effect
[8]
  effect on resting tension of trachea: no effect
[9]
  effect on resting tension of ileum: no effect
[10]
  effect on carbachol-induced contractions of the trachea: noncompetitively inhibited
[1]; 100 mg/kg
  average reduction in gastric damage: 91.5%
[1]; oral 100 mg/kg
  Gastric damage score, Mean: 0.63
  Gastric damage score (individual rat): 0 (6×) and 3 and 2
[11]
  effect on CCK octapeptide-induced contractions of the gallbladder: no effect
